# Tests used:
# Colinus virginianus = conditions: for LD50: acute, oral, mortality
# Rattus norvegicus = conditions: for LD50: acute, mortality
# Apis mellifera = conditions: acute, mortality
# Bibionidae = conditions: chronic/long-term; duration: 28 days
# Canidae = conditions: reproduction developmental; duration: 90 days; Dog Other; mortality
# Chironomus tentans = conditions: acute, mortality
# Cyprinodon variegatus = conditions: mortality
# Mus musculus = conditions: acute; oral; mortality
smiles,measurement,setting,value
CC(O)c1ccc(C(F)(F)F)nc1 (centres undefined) [1-(6-(Trifluoromethyl)pyridin-3-yl)ethanol],LD50,Colinus virginianus,1040 mg/kg
same,LD50,Rattus norvegicus,2000 mg/kg
CC(c1ccc(C(F)(F)F)nc1)S(C)(=O)=NC#N (centres undefined) [Sulfoxaflor],NOAEL,"Anas platyrhynchos; reproductive, reproduction",25.9 mg/kg-day
same,LD50,"Anas platyrhynchos; short-term, oral, feed, mortality",> 1050 mg/kg-day
same,LD50,"Apis mellifera; duration: 48 hours, oral, unspecified",0.146 µg/piece
same,LD50,"Apis mellifera; duration: 72 hours, dermal",0.379 µg/piece
same,NOEC,Bibionidae,0.0384 mg/L
same,NOAEL,Canidae,6.63 mg/kg-day
same,LC50,Chironomus tentans; duration: 96 hours,0.622 µg/mL
same,LC50,Chironomus tentans; duration: 10 days,0.119 mg/kg
same,LD50,Colinus virginianus; diet,> 1150 mg/kg-day
same,LD50,Colinus virginianus,676 mg/kg
same,NOAEL,"Colinus virginianus; reproduction developmental, reproduction",84.4 mg/kg-day
same,LC50,"Cyprinodon variegatus; acute, duration: 96 hours",266 µg/mL
same,NOEC,"Cyprinodon variegatus; chronic/long-term, duration: 38 days",1.21 mg/L
same,LD50,Mus musculus,750 mg/kg
same,LC50,"Neomysis kadiakensis; acute, duration: 96 hours, mortality",0.643 µg/mL
same,NOEC,"Neomysis kadiakensis; chronic/long-term, duration: 28 days, reproduction",0.114 mg/L
same,LD50,Rattus norvegicus; oral,1000 mg/kg
same,NOAEL,"Rattus norvegicus; chronic, duration: 2 years, other",4.24 mg/kg-day
same,NOAEL,"Rattus norvegicus; repeat dose other, neurology",25 mg/kg-day
same,NOAEL,"Rattus norvegicus; subchronic, duration: 90 days, oral, histopathology: nonneoplastic",6.36 mg/kg-day
same,LC50,"Tagia sp.; acute, duration: 14 days, mortality",0.885 mg/kg
same,NOEC,"Tagia sp.; chronic/long-term, duration: 8 weeks",0.1 mg/kg

# Source: EPA's ToxValDB 9.5 (doi:10.2903/j.efsa.2014.3692)
